Measured values: PubChem BioAssay AID248 (DTP/NCI, 2004)
“And” between values parts separate entries of the source, which are not always exact repeats. Identical values can stand only once. Toxic doses and inconclusive results are not listed. Rule as the data show it: active = T/C of 150% or more; inactive = T/C below 125%.

Test system: L1210 leukemia ip in BDF1 mice, survival T/C
Experiment: NCI In Vivo Anticancer Drug Screen. Data for tumor model L1210 Leukemia (intraperitoneal) in B6D2F1 (BDF1) mice
Conditions: endpoint: mean survival time, higher = longer survival
Procedure, shortened: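 Each compound was tested against a transplantable tumor grown in mice. The endpoint was survival, with treated animals benchmarked against vehicle controls as a simple ratio.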

[1] = dose: 100.0 mg/kg/injection, schedule: Q01DX001 (ip), vehicle: carboxymethylcellulose (CMC)
[2] = dose: 200.0 mg/kg/injection, schedule: Q01DX001 (ip), vehicle: carboxymethylcellulose (CMC)
[3] = dose: 400.0 mg/kg/injection, schedule: Q01DX001 (ip), vehicle: carboxymethylcellulose (CMC)
[4] = dose: 100.0 mg/kg/injection, schedule: Q04DX003 (ip), vehicle: saline
[5] = dose: 200.0 mg/kg/injection, schedule: Q04DX003 (ip), vehicle: saline
[6] = dose: 50.0 mg/kg/injection, schedule: Q01DX009 (ip), vehicle: Klucel (hydroxypropylcellulose) (HPC)
[7] = dose: 100.0 mg/kg/injection, schedule: Q01DX009 (ip), vehicle: Klucel (hydroxypropylcellulose) (HPC)
[8] = dose: 200.0 mg/kg/injection, schedule: Q01DX009 (ip), vehicle: Klucel (hydroxypropylcellulose) (HPC)
[9] = dose: 100.0 mg/kg/injection, schedule: Q01DX001 (ip), vehicle: Klucel (hydroxypropylcellulose) (HPC)
[10] = dose: 100.0 mg/kg/injection, schedule: Q04DX003 (ip), vehicle: Klucel (hydroxypropylcellulose) (HPC)
[11] = dose: 200.0 mg/kg/injection, schedule: Q01DX001 (ip), vehicle: Klucel (hydroxypropylcellulose) (HPC)
[12] = dose: 200.0 mg/kg/injection, schedule: Q04DX003 (ip), vehicle: Klucel (hydroxypropylcellulose) (HPC)
[13] = dose: 400.0 mg/kg/injection, schedule: Q01DX001 (ip), vehicle: Klucel (hydroxypropylcellulose) (HPC)
[14] = dose: 400.0 mg/kg/injection, schedule: Q04DX003 (ip), vehicle: Klucel (hydroxypropylcellulose) (HPC)
[15] = dose: 100.0 mg/kg/injection, schedule: Q01DX001 (ip), vehicle: saline
[16] = dose: 200.0 mg/kg/injection, schedule: Q01DX001 (ip), vehicle: saline
[17] = dose: 400.0 mg/kg/injection, schedule: Q01DX001 (ip), vehicle: saline

Measured: T/C

O=c1nc2c3ncn(Cc4ccccc4)c3nnn2[nH]1
inactive: [1] 100 % of control | [2] 106 % of control | [3] 100 % of control

CCOC(=O)NCCCNC(=O)OCC
inactive: [4] 95 % of control | [5] 103 % of control | dose: 400.0 mg/kg/injection, schedule: Q04DX003 (ip), vehicle: saline 97 % of control

CCN(Cc1ccccc1)C(=S)Nc1ccccc1
inactive: dose: 100.0 mg/kg/injection, schedule: Q04DX002 (ip), vehicle: Klucel (hydroxypropylcellulose) (HPC) 96 % of control | dose: 200.0 mg/kg/injection, schedule: Q04DX002 (ip), vehicle: Klucel (hydroxypropylcellulose) (HPC) 108 % of control | dose: 400.0 mg/kg/injection, schedule: Q04DX002 (ip), vehicle: Klucel (hydroxypropylcellulose) (HPC) 101 % of control

Nc1cc(Cl)ccc1Nc1ccccc1
inactive: dose: 50.0 mg/kg/injection, schedule: Q01DX001 (ip), vehicle: carboxymethylcellulose (CMC) 101 % of control | [1] 109 % of control | [2] 101 % of control | [3] 101 % of control

O=C(Nc1cccc(C(F)(F)F)c1)Nc1ccccn1
inactive: dose: 100.0 mg/kg/injection, schedule: Q01DX009 (ip), vehicle: gum acacia 99 % of control | dose: 200.0 mg/kg/injection, schedule: Q01DX009 (ip), vehicle: gum acacia 92 % of control | dose: 400.0 mg/kg/injection, schedule: Q01DX009 (ip), vehicle: gum acacia 89 % of control

Nc1ccc(NC(=S)S)cc1
inactive: dose: 75.0 mg/kg/injection, schedule: Q01DX001 (ip), vehicle: saline 93 % of control | dose: 150.0 mg/kg/injection, schedule: Q01DX001 (ip), vehicle: saline 93 % of control

NC(N)=Nc1nc(N)nc(N)n1
inactive: dose: 50.0 mg/kg/injection, schedule: Q01DX009 (ip), vehicle: saline with Tween-80 108 % of control

CN(C)C(=O)C(OCc1ccccc1)C(OCc1ccccc1)C(OCc1ccccc1)C(O)COCc1ccccc1 (stereo not given)
inactive: [6] 88 % of control | [7] 96 % of control | [8] 100 % of control

COc1ccc(C(=S)N(C)c2ccccc2C)cc1
inactive: [9] 98 % of control | [10] 96 % of control | [11] 112 % of control | [12] 103 % of control | [13] 105 % of control | [14] 100 % of control

COC1OCC(N=[N+]=[N-])C(OC)C1O (stereo not given)
inactive: dose: 100.0 mg/kg/injection, schedule: Q04DX003 (ip), vehicle: saline with Tween-80 100 % of control | dose: 200.0 mg/kg/injection, schedule: Q04DX003 (ip), vehicle: saline with Tween-80 100 % of control | dose: 400.0 mg/kg/injection, schedule: Q04DX003 (ip), vehicle: saline with Tween-80 98 % of control

CCCC(=O)Nc1ccc(N=Nc2ccccc2)cc1
inactive: dose: 25.0 mg/kg/injection, schedule: Q01DX009 (ip), vehicle: Klucel (hydroxypropylcellulose) (HPC) 100 % of control | [6] 92 % of control | [7] 94 % of control and 96 % of control | [8] 95 % of control

O=C(CCN(Cc1ccccc1)Cc1ccccc1)c1csc2ccccc12
inactive: [1] 96 % of control | [2] 89 % of control | [3] 94 % of control

CC(C)(C)Sc1cccnc1
inactive: dose: 100.0 mg/kg/injection, schedule: Q01DX009 (ip), vehicle: saline with Tween-80 94 % of control | dose: 200.0 mg/kg/injection, schedule: Q01DX009 (ip), vehicle: saline with Tween-80 98 % of control

Cc1nc(C)c(I)s1
inactive: [7] 93 % of control | [10] 98 % of control | [8] 97 % of control | [12] 93 % of control | dose: 400.0 mg/kg/injection, schedule: Q01DX009 (ip), vehicle: Klucel (hydroxypropylcellulose) (HPC) 94 % of control | [14] 104 % of control

CC(=O)OCC(OC(C)=O)C(OC(C)=O)C(OC(C)=O)C(/C=N/NC(N)=S)=N/NC(N)=S (stereo not given)
inactive: dose: 100.0 mg/kg/injection, schedule: Q01DX009 (ip), vehicle: other 95 % of control | dose: 100.0 mg/kg/injection, schedule: Q04DX003 (ip), vehicle: other 98 % of control | dose: 200.0 mg/kg/injection, schedule: Q01DX009 (ip), vehicle: other 91 % of control | dose: 200.0 mg/kg/injection, schedule: Q04DX003 (ip), vehicle: other 103 % of control | dose: 400.0 mg/kg/injection, schedule: Q04DX003 (ip), vehicle: other 103 % of control

COc1ccc(C(N)=S)c2ccccc12
inactive: [9] 105 % of control | [11] 102 % of control | [13] 102 % of control

CCCCCCCCCCCCCCCC(=O)N(CC#N)CC#N
inactive: [10] 91 % of control | [12] 92 % of control | [14] 89 % of control

Oc1c(CN2CCOCC2)cc(N=Nc2ccccc2)c(O)c1CN1CCOCC1
inactive: [15] 88 % of control | [16] 104 % of control | [17] 88 % of control

Cc1ncc(CO)c(C2NOCc3nscc32)c1O (stereo not given)
inactive: dose: 3.12 mg/kg/injection, schedule: Q01DX009 (ip), vehicle: Klucel (hydroxypropylcellulose) (HPC) 94 % of control | dose: 3.12 mg/kg/injection, schedule: Q01DX009 (ip), vehicle: other 98 % of control | dose: 6.25 mg/kg/injection, schedule: Q01DX009 (ip), vehicle: other 100 % of control | dose: 12.5 mg/kg/injection, schedule: Q01DX009 (ip), vehicle: Klucel (hydroxypropylcellulose) (HPC) 89 % of control | dose: 12.5 mg/kg/injection, schedule: Q01DX009 (ip), vehicle: other 107 % of control | dose: 12.5 mg/kg/injection, schedule: Q04DX003 (ip), vehicle: Klucel (hydroxypropylcellulose) (HPC) 92 % of control

CCCNC(=O)Nc1ccc(C)cc1
inactive: [1] 116 % of control | [2] 94 % of control | [3] 103 % of control

CN(C)c1ccc(C(=O)CCCN2CCC(O)(c3ccc(C(F)(F)F)cc3)CC2)cc1
inactive: dose: 50.0 mg/kg/injection, schedule: Q01DX001 (ip), vehicle: Klucel (hydroxypropylcellulose) (HPC) 97 % of control | [9] 96 % of control | [11] 105 % of control

CCCCOP(=S)(Nc1ccccc1)OCCCC
inactive: [10] 107 % of control | [12] 107 % of control | [14] 122 % of control

CC(C)C(=O)NC(Cc1ccccc1)C(=O)N(Cc1ccccc1)N=O (stereo not given)
inactive: dose: 32.0 mg/kg/injection, schedule: Q04DX002 (ip), vehicle: Klucel (hydroxypropylcellulose) (HPC) 94 % of control | dose: 63.0 mg/kg/injection, schedule: Q04DX002 (ip), vehicle: Klucel (hydroxypropylcellulose) (HPC) 97 % of control | dose: 125.0 mg/kg/injection, schedule: Q04DX002 (ip), vehicle: Klucel (hydroxypropylcellulose) (HPC) 94 % of control

CCOC(=O)C1(C(=O)OCC)C(C)CC(O)N1C(=O)c1ccccc1[N+](=O)[O-] (stereo not given)
inactive: dose: 25.0 mg/kg/injection, schedule: Q04DX003 (ip), vehicle: Klucel (hydroxypropylcellulose) (HPC) 100 % of control | dose: 50.0 mg/kg/injection, schedule: Q04DX003 (ip), vehicle: Klucel (hydroxypropylcellulose) (HPC) 91 % of control | [10] 92 % of control

CS(=O)(=O)C(=O)O
inactive: [15] 96 % of control | [16] 101 % of control | [17] 98 % of control

NNc1ccccc1Br
inactive: [4] 101 % of control | [5] 102 % of control

CC(C(=O)O)N(CC(=O)O)CC(=O)O.[Co+2].[NH-]CC(=O)O (stereo not given)
inactive: dose: 6.25 mg/kg/injection, schedule: Q01DX009 (ip), vehicle: water 106 % of control and 89 % of control | dose: 12.5 mg/kg/injection, schedule: Q01DX009 (ip), vehicle: water 93 % of control and 106 % of control and 124 % of control | dose: 25.0 mg/kg/injection, schedule: Q01DX009 (ip), vehicle: water 102 % of control and 109 % of control | dose: 50.0 mg/kg/injection, schedule: Q01DX009 (ip), vehicle: water 109 % of control and 114 % of control | dose: 100.0 mg/kg/injection, schedule: Q04DX003 (ip), vehicle: water 107 % of control | dose: 200.0 mg/kg/injection, schedule: Q04DX003 (ip), vehicle: water 105 % of control

C=C(C)C(=O)CC(=O)C1CCc2cc(OC)ccc2C1=O (stereo not given)
inactive: dose: 100.0 mg/kg/injection, schedule: Q01DX009 (ip), vehicle: saline sonified 102 % of control | dose: 200.0 mg/kg/injection, schedule: Q01DX009 (ip), vehicle: saline sonified 96 % of control | dose: 400.0 mg/kg/injection, schedule: Q01DX009 (ip), vehicle: saline sonified 100 % of control
